Data reported in patent publication US10898475B2, “Bach1 inhibitors in combination with Nrf2 activators and pharmaceutical compositions thereof” (vTv Therapeutics LLC, priority 2014, dated 2021).
Several values for one entry are separate records, joined by “and”; a condition that tells them apart may be missing. Identical values can stand only once. Counter-ions that a name gives are not always drawn.

System: HMOX1 in Normal Human Lung Fibroblasts (NHLF)
Assay: HMOX1 Protein Expression (immunostaining, fold induction or % positive cells over DMSO)
Settings: for % Cells Positive HMOX: Cpd. 0 uM
[1] = Homo sapiens, Fibroblast, read-out: Fold Induction of HMOX

Experimental: Normal Human Lung Fibroblasts (NHLF) obtained from Lonza were cultured in T-225 flasks using conditions recommended by the vendor (FGM-2 medium supplemented with 2% fetal bovine serum (FBS), fibroblast growth factor (hFGF-B) 0.5 mL, insulin 0.5 mL, and gentamicin/amphotericin-B 0.5 mL at 37° C. in a humidified atmosphere of 5% CO2).
For assays, cell were thawed and placed into culture in T225 flasks, grown to be 80% confluent, and harvested as described by the vendor. NHLF cells (2.5×10^4 cells per well) were plated in 384 well optilux tissue culture (BD) plates and incubated overnight in media prior to exposure to compound. Cells were incubated with DMSO or various combinations of either an Nrf2 Activator (DMF (dimethyl fumarate)/CDDO-Me) or a Bach1 Inhibitor for 16-18 hr. Cells were then fixed and permeabilized prior to incubation with HMOX1 antibody (abcam; 1:300 dilution in 1% BSA in PBS) for 1 hour. Cells were then washed and incubated with a solution of fluorescently-coupled goat anti-mouse antibody (Alexa 488 1:400 dilution Invitrogen) and Hoechst nuclear stain (1:2000; Invitrogen) in PBS containing 1% BSA for 1 hr. Immunostaining was detected using a GE InCell 2000 instrument at the following wavelengths: Hoechst Ex/Em 360/535 and Alexa 488 Ex/Em 480/535. Results were analyzed using GE InCell Analyzer software and represented as the increase fold of HMOX1 induction (Fold induction/FI) or the percentage of HMOX1 positive (% positive) cells over DMSO.

## CNC(=O)c1ccc2c(c1)nc(Nc1nc3ccc(OC(F)(F)F)cc3s1)n2C [HPP-A, 1-Methyl-2-(6-trifluoromethoxy-benzothiazol-2-ylamino)-1H-benzoimidazole-5-carboxylic acid methyl amide]
156 nM HPP-A alone
  increase HMOX1 (FIG. 1 bar A): 3.5 fold
156 nM HPP-A combined with 9.7 nM CDDO-Me
  combined effect on HMOX induction (FIG. 1 bar C): greater than additive
HPP-A 0.019 uM, Bardoxolone Methyl 0 uM
  Fold Induction of HMOX: 0.97 fold
HPP-A 0.019 uM, Bardoxolone Methyl 0.0024 uM
  Fold Induction of HMOX: 3.24 fold
HPP-A 0.019 uM, Bardoxolone Methyl 0.0048 uM
  Fold Induction of HMOX: 2.88 fold
HPP-A 0.019 uM, Bardoxolone Methyl 0.0097 uM
  Fold Induction of HMOX: 7.14 fold
HPP-A 0.019 uM, Bardoxolone Methyl 0.039 uM
  Fold Induction of HMOX: 15.87 fold
HPP-A 0.019 uM, Bardoxolone Methyl 0.078 uM
  Fold Induction of HMOX: 22.27 fold
HPP-A 0.019 uM, Bardoxolone Methyl 0.156 uM
  Fold Induction of HMOX: 22.90 fold
HPP-A 0.019 uM, Bardoxolone Methyl 0.312 uM
  Fold Induction of HMOX: 17.20 fold
HPP-A 0.039 uM, Bardoxolone Methyl 0 uM
  Fold Induction of HMOX: 1.09 fold
HPP-A 0.039 uM, Bardoxolone Methyl 0.0024 uM
  Fold Induction of HMOX: 2.32 fold
HPP-A 0.039 uM, Bardoxolone Methyl 0.0048 uM
  Fold Induction of HMOX: 3.04 fold
HPP-A 0.039 uM, Bardoxolone Methyl 0.0097 uM
  Fold Induction of HMOX: 5.31 fold
HPP-A 0.039 uM, Bardoxolone Methyl 0.019 uM
  Fold Induction of HMOX: 8.57 fold
HPP-A 0.039 uM, Bardoxolone Methyl 0.078 uM
  Fold Induction of HMOX: 18.69 fold
HPP-A 0.039 uM, Bardoxolone Methyl 0.156 uM
  Fold Induction of HMOX: 17.24 fold
HPP-A 0.039 uM, Bardoxolone Methyl 0.312 uM
  Fold Induction of HMOX: 17.44 fold
HPP-A 0.078 uM, Bardoxolone Methyl 0 uM
  Fold Induction of HMOX: 1.92 fold
HPP-A 0.078 uM, Bardoxolone Methyl 0.0024 uM
  Fold Induction of HMOX: 4.25 fold
HPP-A 0.078 uM, Bardoxolone Methyl 0.0048 uM
  Fold Induction of HMOX: 4.72 fold
HPP-A 0.078 uM, Bardoxolone Methyl 0.0097 uM
  Fold Induction of HMOX: 8.43 fold
HPP-A 0.078 uM, Bardoxolone Methyl 0.019 uM
  Fold Induction of HMOX: 13.21 fold
HPP-A 0.078 uM, Bardoxolone Methyl 0.039 uM
  Fold Induction of HMOX: 17.81 fold
HPP-A 0.078 uM, Bardoxolone Methyl 0.156 uM
  Fold Induction of HMOX: 17.88 fold
HPP-A 0.078 uM, Bardoxolone Methyl 0.312 uM
  Fold Induction of HMOX: 15.33 fold
HPP-A 0.156 uM, Bardoxolone Methyl 0 uM
  Fold Induction of HMOX: 3.46 fold
HPP-A 0.156 uM, Bardoxolone Methyl 0.0024 uM
  Fold Induction of HMOX: 7.32 fold
HPP-A 0.156 uM, Bardoxolone Methyl 0.0048 uM
  Fold Induction of HMOX: 8.04 fold
HPP-A 0.156 uM, Bardoxolone Methyl 0.0097 uM
  Fold Induction of HMOX: 12.05 fold
HPP-A 0.156 uM, Bardoxolone Methyl 0.019 uM
  Fold Induction of HMOX: 15.95 fold
HPP-A 0.156 uM, Bardoxolone Methyl 0.039 uM
  Fold Induction of HMOX: 17.59 fold
HPP-A 0.156 uM, Bardoxolone Methyl 0.078 uM
  Fold Induction of HMOX: 18.44 fold
HPP-A 0.156 uM, Bardoxolone Methyl 0.312 uM
  Fold Induction of HMOX: 15.98 fold
HPP-A 0.312 uM, Bardoxolone Methyl 0 uM
  Fold Induction of HMOX: 9.82 fold
HPP-A 0.312 uM, Bardoxolone Methyl 0.0024 uM
  Fold Induction of HMOX: 11.67 fold
HPP-A 0.312 uM, Bardoxolone Methyl 0.0048 uM
  Fold Induction of HMOX: 13.59 fold
HPP-A 0.312 uM, Bardoxolone Methyl 0.0097 uM
  Fold Induction of HMOX: 16.45 fold
HPP-A 0.312 uM, Bardoxolone Methyl 0.019 uM
  Fold Induction of HMOX: 17.74 fold
HPP-A 0.312 uM, Bardoxolone Methyl 0.039 uM
  Fold Induction of HMOX: 19.61 fold
HPP-A 0.312 uM, Bardoxolone Methyl 0.078 uM
  Fold Induction of HMOX: 21.13 fold
HPP-A 0.312 uM, Bardoxolone Methyl 0.156 uM
  Fold Induction of HMOX: 19.21 fold
HPP-A 0.625 uM, Bardoxolone Methyl 0 uM
  Fold Induction of HMOX: 15.00 fold
HPP-A 0.625 uM, Bardoxolone Methyl 0.0024 uM
  Fold Induction of HMOX: 15.70 fold
HPP-A 0.625 uM, Bardoxolone Methyl 0.0048 uM
  Fold Induction of HMOX: 17.10 fold
HPP-A 0.625 uM, Bardoxolone Methyl 0.0097 uM
  Fold Induction of HMOX: 17.18 fold
HPP-A 0.625 uM, Bardoxolone Methyl 0.019 uM
  Fold Induction of HMOX: 16.84 fold
HPP-A 0.625 uM, Bardoxolone Methyl 0.039 uM
  Fold Induction of HMOX: 17.24 fold
HPP-A 0.625 uM, Bardoxolone Methyl 0.078 uM
  Fold Induction of HMOX: 18.60 fold
HPP-A 0.625 uM, Bardoxolone Methyl 0.156 uM
  Fold Induction of HMOX: 18.68 fold
HPP-A 0.625 uM, Bardoxolone Methyl 0.312 uM
  Fold Induction of HMOX: 12.69 fold
HPP-A 1.25 uM, Bardoxolone Methyl 0 uM
  Fold Induction of HMOX: 16.17 fold
HPP-A 1.25 uM, Bardoxolone Methyl 0.0024 uM
  Fold Induction of HMOX: 16.12 fold
HPP-A 1.25 uM, Bardoxolone Methyl 0.0048 uM
  Fold Induction of HMOX: 17.26 fold
HPP-A 1.25 uM, Bardoxolone Methyl 0.0097 uM
  Fold Induction of HMOX: 16.49 fold
HPP-A 1.25 uM, Bardoxolone Methyl 0.019 uM
  Fold Induction of HMOX: 15.93 fold
HPP-A 1.25 uM, Bardoxolone Methyl 0.039 uM
  Fold Induction of HMOX: 15.63 fold
HPP-A 1.25 uM, Bardoxolone Methyl 0.078 uM
  Fold Induction of HMOX: 15.15 fold
HPP-A 1.25 uM, Bardoxolone Methyl 0.156 uM
  Fold Induction of HMOX: 16.65 fold
HPP-A 1.25 uM, Bardoxolone Methyl 0.312 uM
  Fold Induction of HMOX: 10.53 fold
HPP-A 2.5 uM, Bardoxolone Methyl 0 uM
  Fold Induction of HMOX: 17.48 fold
HPP-A 2.5 uM, Bardoxolone Methyl 0.0024 uM
  Fold Induction of HMOX: 18.81 fold
HPP-A 2.5 uM, Bardoxolone Methyl 0.0048 uM
  Fold Induction of HMOX: 19.48 fold
HPP-A 2.5 uM, Bardoxolone Methyl 0.0097 uM
  Fold Induction of HMOX: 19.42 fold
HPP-A 2.5 uM, Bardoxolone Methyl 0.019 uM
  Fold Induction of HMOX: 17.04 fold
HPP-A 2.5 uM, Bardoxolone Methyl 0.039 uM
  Fold Induction of HMOX: 14.71 fold
HPP-A 2.5 uM, Bardoxolone Methyl 0.078 uM
  Fold Induction of HMOX: 14.33 fold
HPP-A 2.5 uM, Bardoxolone Methyl 0.156 uM
  Fold Induction of HMOX: 12.49 fold
HPP-A 5 uM, Bardoxolone Methyl 0 uM
  Fold Induction of HMOX: 17.72 fold
HPP-A alone, concentrations greater than or equal to 2500 nM
  maximum HMOX1 fold induction: 18 fold
[1]
  fold induction at 0.019 µM: 10
  fold induction at 0.039 µM: 14.7
  fold induction at 0.078 µM: 19.5
  fold induction at 0.156 µM: 18.3
  fold induction at 0.312 µM: 17.4

## COC(=O)[C@]12CCC(C)(C)C[C@H]1[C@H]1C(=O)C=C3[C@@]4(C)C=C(C#N)C(=O)C(C)(C)[C@@H]4CC[C@@]3(C)[C@]1(C)CC2 [Bardoxolone Methyl, methyl 2-cyano-3,12-dioxooleana-1,9(11)dien-28-oate, reference compound]
9.7 nM CDDO-Me alone
  increase HMOX1 (FIG. 1 bar B): 2.5 fold
CDDO-Me alone, greater than or equal to 156 nM
  induction of HMOX1 protein: 19 fold
[1]
  fold induction at 0.0024 µM: 1.31
  fold induction at 0.0048 µM: 1.59
  fold induction at 0.0097 µM: 2.53
  fold induction at 0.019 µM: 5
  fold induction at 0.039 µM: 8.48
  fold induction at 0.078 µM: 12.2
  fold induction at 0.156 µM: 19
  fold induction at 0.312 µM: 16.4

## COC(=O)/C=C/C(=O)OC [DMF, dimethyl fumarate, reference compound]
Bach1 Inhibitor Conc. 0 uM, % Positive HMOX
  Hill slope of DMF dose response curves in Table 2: 1.25 and 1.26
DMF 0.03 uM
  % Cells Positive HMOX: 1.71%
DMF 0.1 uM
  % Cells Positive HMOX: 1.21%
DMF 0.3 uM
  % Cells Positive HMOX: 2.47%
DMF 1 uM
  % Cells Positive HMOX: 4.38%
DMF 3 uM
  % Cells Positive HMOX: 41.58%
DMF 10 uM
  % Cells Positive HMOX: 74.35%
DMF 30 uM
  % Cells Positive HMOX: 84.56%
[1]
  fold induction at 0.03 µM: 1.04
  fold induction at 0.1 µM: 1.06
  fold induction at 0.3 µM: 1.14
  fold induction at 1 µM: 1.39
  fold induction at 3 µM: 2.76
  fold induction at 10 µM: 4.45
  fold induction at 30 µM: 6.19
